Test results reported in ChEMBL document CHEMBL2417438, “Preparation and antitrypanosomal activity of secochiliolide acid derivatives” (Bioorg Med Chem Lett, 2013).
≈ marks a conversion by molar mass, not a printed value. Calls of active or inactive are those of the source. The calls are words filed in the database; no cut-off is given here.

Experiments:
Trypanosoma cruzi [1] = assay: Antiparasitic activity against epimastigotes of Trypanosoma cruzi assessed as inhibition of parasite proliferation; type: functional, organism-based
Trypanosoma cruzi [2] = assay: Antiparasitic activity against epimastigotes of Trypanosoma cruzi assessed as inhibition of parasite proliferation at 1 to 10 ug/ml; type: functional, organism-based
[3] = Trypanosoma cruzi, read-out: IC50

Row | SMILES | IC50 (Trypanosoma cruzi [1]) | inhibition (Trypanosoma cruzi [2]) | IC50 (Trypanosoma cruzi [1]; [3])
1 | CC(C)=C1CC[C@@H](C)[C@]2(C[C@@H](c3ccoc3)OC2=O)[C@H]1CCN=C=O | Not Active | – | –
2 | CC(C)=C1CC[C@@H](C)[C@]2(C[C@@H](c3ccoc3)OC2=O)[C@H]1CCC(=O)OC(C)(C)C | Not Active | – | –
3 | COC(=O)CC[C@@H]1[C@@]2(C[C@@H](c3ccoc3)OC2=O)[C@H](C)CC[C@@]12OC2(C)C | Not Active | – | –
4 | CC(C)=C1CC[C@@H](C)[C@]2(C[C@@H](c3ccoc3)OC2=O)[C@H]1CCC(=O)O | – | Active | 2 µg/mL (≈ 5.77 µM)
5 | CC(C)=C1CC[C@@H](C)[C@]2(C[C@@H](c3ccoc3)OC2=O)[C@H]1CCNC(=O)OC(C)(C)C | – | – | 2 µg/mL (≈ 4.79 µM)
6 | CC(C)=C1CC[C@@H](C)[C@]2(C[C@@H](c3ccoc3)OC2=O)[C@H]1CCNC(=O)N=[N+]=[N-] | – | – | 4 µg/mL (≈ 10.4 µM)
7 | C=C(C)[C@]12CC[C@@H](C)[C@]3(C[C@@H](c4ccoc4)OC3=O)[C@H]1CCC(=O)O2 | – | – | 5 µg/mL (≈ 14.5 µM)
8 | CC(C)=C1CC[C@@H](C)[C@]2(C[C@@H](c3ccoc3)OC2=O)[C@H]1CCNC(=O)NCC[C@H]1C(=C(C)C)CC[C@@H](C)[C@]12C[C@@H](c1ccoc1)OC2=O | – | – | 5 µg/mL (≈ 7.57 µM)
9 | O=C(Cn1ccnc1[N+](=O)[O-])NCc1ccccc1 [BENZNIDAZOLE] | – | – | 2.5 µg/mL (≈ 9.61 µM)
10 | CC(C)=C1CC[C@@H](C)[C@]2(C[C@@H](c3ccoc3)OC2=O)[C@H]1CCc1cc(O)ccc1O | – | – | 7 µg/mL (≈ 17.1 µM)
11 | CC(C)=C1CC[C@@H](C)[C@]2(C[C@@H](c3ccoc3)OC2=O)[C@H]1CCC1=CC(=O)C=CC1=O | – | – | 2 µg/mL (≈ 4.9 µM)
